Measured values taken from patent US8680062B2, “System for delivering therapeutic agents into living cells and cells nuclei” (Deliversir Ltd., priority 2004, dated 2014).

How the values were obtained:
DNA polymerase I = DNA polymerase I (Escherichia coli, UniProt P00582); details: 90 minute time point; 5.4 Kb plasmid, 15° C., 3H-dGTP counting
Description: At each time point of interest, 2 μl from the reaction mixture were withdrawn, spotted on glass fiber filters (GF/C), washed once with 10% trichloroacetic acid (TCA) and twice with 5% TCA, and with alcohol and was thereafter dried. The filters were loaded to a liquid scintillation counter for measurements of the progression of the polymerase reaction and the relative level of incorporation.

rTh polymerase = molecular target: T1, rTh polymerase (Thermus thermophilus, UniProt P52028); experiment: PCR polymerase assay of modified nucleotide as substrate in place of dTTP; format: biochemical; details: typical PCR conditions, Taq, Vent, Pfu and rTh polymerases tested
T1 construct: purchased
T1 sequence (P52028 whole entry): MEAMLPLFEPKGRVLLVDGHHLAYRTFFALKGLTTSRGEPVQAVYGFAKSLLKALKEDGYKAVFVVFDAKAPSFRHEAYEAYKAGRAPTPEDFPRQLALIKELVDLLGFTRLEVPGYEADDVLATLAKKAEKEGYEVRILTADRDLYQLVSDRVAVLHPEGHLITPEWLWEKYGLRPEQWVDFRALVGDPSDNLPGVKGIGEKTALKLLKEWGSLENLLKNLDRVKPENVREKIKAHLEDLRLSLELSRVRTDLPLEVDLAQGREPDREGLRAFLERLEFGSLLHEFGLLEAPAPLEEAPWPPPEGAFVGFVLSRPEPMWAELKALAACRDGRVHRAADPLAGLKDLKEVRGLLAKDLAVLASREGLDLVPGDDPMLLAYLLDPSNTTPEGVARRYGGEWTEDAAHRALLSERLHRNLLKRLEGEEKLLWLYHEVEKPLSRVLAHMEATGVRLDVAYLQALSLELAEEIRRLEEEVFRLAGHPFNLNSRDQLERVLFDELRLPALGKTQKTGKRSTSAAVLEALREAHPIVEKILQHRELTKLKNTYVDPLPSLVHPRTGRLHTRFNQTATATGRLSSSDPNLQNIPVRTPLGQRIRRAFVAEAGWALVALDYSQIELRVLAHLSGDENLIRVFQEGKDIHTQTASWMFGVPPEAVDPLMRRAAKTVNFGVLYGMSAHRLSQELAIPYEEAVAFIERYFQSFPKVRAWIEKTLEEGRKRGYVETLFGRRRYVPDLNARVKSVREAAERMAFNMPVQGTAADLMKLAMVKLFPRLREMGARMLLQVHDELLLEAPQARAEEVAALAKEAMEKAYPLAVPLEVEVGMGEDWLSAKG
Description: The modified nucleotides described above were tasted in polymerase assays to determine their compatibility as substrates for polymerase reactions. The modified nucleotide Compound 7 (modified dUTP), served as a substrate in place of deoxythymidinetriphosphate, dTTP, for thermostable DNA polymerases using typical PCR conditions. Commercially available thermostable DNA polymerases from […] were used in the assays: Taq from Thermus aquaticus, Vent from Thermococcus litoralis, Pfu from Pyrococcus furiosus, and rTh from Thennus thennophilus.

DNA polymerase I, sequence (P00582 whole entry): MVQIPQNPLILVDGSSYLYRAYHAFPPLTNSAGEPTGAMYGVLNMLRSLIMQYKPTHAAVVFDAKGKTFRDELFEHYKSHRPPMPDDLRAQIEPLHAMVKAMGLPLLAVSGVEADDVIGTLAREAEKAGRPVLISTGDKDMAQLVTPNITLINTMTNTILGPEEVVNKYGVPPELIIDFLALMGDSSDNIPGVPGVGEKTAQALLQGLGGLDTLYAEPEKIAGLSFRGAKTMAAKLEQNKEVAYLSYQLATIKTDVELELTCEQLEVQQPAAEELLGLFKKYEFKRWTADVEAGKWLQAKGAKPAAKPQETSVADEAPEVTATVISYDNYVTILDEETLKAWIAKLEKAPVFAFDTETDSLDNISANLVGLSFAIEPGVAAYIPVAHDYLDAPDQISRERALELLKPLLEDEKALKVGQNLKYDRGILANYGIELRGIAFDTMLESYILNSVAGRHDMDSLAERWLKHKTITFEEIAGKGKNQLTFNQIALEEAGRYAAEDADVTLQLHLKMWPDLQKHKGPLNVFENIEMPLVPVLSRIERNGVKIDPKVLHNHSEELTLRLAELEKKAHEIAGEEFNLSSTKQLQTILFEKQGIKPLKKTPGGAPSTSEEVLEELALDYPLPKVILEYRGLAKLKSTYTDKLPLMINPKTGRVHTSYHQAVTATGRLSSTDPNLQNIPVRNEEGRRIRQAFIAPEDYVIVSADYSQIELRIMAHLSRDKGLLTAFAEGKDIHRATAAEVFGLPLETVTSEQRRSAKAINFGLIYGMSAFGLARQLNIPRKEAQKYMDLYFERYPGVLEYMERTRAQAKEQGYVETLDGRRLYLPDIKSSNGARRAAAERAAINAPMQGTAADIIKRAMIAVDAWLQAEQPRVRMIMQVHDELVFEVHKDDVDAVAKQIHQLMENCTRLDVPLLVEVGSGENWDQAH

Compound	relative levels of incorporation of the modified deoxynucleotides (DNA polymerase I)	incorporation into PCR product as polymerase substrate (rTh polymerase)
urocanic acid modified dUTP [Compound 8]	54%	
NC/C=C/c1cn(C2CC(O)C(COP(=O)(O)OP(=O)(O)OP(=O)(O)O)O2)c(=O)[nH]c1=O (stereo not shown) [Compound 7, 5′-triphosphate-5-(3-aminopropen-1-yl)deoxyuridine]		incorporation into a 561 base pair product only with rTh polymerase
urocanic acid modified dCTP [Compound 11]	44%	
NCCCCCCNc1ncnc2c1ncn2[C@H]1C[C@H](O)[C@@H](COP(=O)(O)OP(=O)(O)OP(=O)(O)O)O1 [N^6-aminohexyl dATP, reference compound]	70%	
